Type in all cases: functional
For assay [1], the system named is Moraxella catarrhalis. The assay is described as follows: Bacteriostatic activity against erythromycin-susceptible Moraxella catarrhalis 11B366 after 20 hrs by two-fold microbroth dilution method. To be noted: 11B366, 20 h. (In general: Broth dilution looks for growth in wells or tubes with falling amounts of substance.)
Assay [2] has as its system Staphylococcus aureus. The assay is described as follows: Bacteriostatic activity against methicillin-resistant Staphylococcus aureus PU32 expressing inducible ermA after 20 hrs by two-fold microbroth dilution method. The note with it: PU32, 20 h.
Assay [3] concerns Staphylococcus aureus. Description: Ratio of MBC to MIC against methicillin-resistant Staphylococcus aureus PU32 expressing inducible ermA.
In assay [4] the test system is Streptococcus pneumoniae. Description: Ratio of MBC to MIC for […] Streptococcus pneumoniae ATCC 49619.
The test system of assay [5] is Staphylococcus aureus. The assay is described as follows: Bactericidal activity against methicillin-resistant Staphylococcus aureus PU32 expressing inducible ermA incubated for 20 hrs followed by sub-culturing for 24 hrs in absence of compound.
In assay [6] the test system is Streptococcus pyogenes. Description: Ratio of MBC to MIC for Streptococcus pyogenes 01-968 expressing inducible ermA.
Assay [7] has as its system Staphylococcus aureus. Description: Ratio of MBC to MIC for methicillin-resistant Staphylococcus aureus PU20 expressing constitutive ermC.
Assay [8] deals with Streptococcus pyogenes. Description: Bacteriostatic activity against Streptococcus pyogenes 12-207 expressing mef after 20 to 24 hrs by two-fold microbroth dilution method.
For assay [9], the system named is Streptococcus pyogenes. The assay is described as follows: Ratio of MBC to MIC for Streptococcus pyogenes 12-207 expressing mef.
The subject of assay [10] is Haemophilus influenzae. Description: Bacteriostatic activity against azithromycin-susceptible/ampicillin-resistant Haemophilus influenzae 11P307 after 20 to 24 hrs by two-fold microbroth dilution method.
In assay [11] the test system is Moraxella catarrhalis. Description: Ratio of MBC to MIC against erythromycin-susceptible Moraxella catarrhalis 11B366.
Assay [12] deals with Moraxella catarrhalis. The assay is described as follows: Bactericidal activity against erythromycin-susceptible Moraxella catarrhalis 11B366 incubated for 20 hrs followed by sub-culturing for 24 hrs in absence of compound.
For assay [13], the system named is Streptococcus pyogenes. Description: Bactericidal activity against Streptococcus pyogenes 01-968 expressing inducible ermA incubated for 20 to 24 hrs followed by sub-culturing for 24 hrs in absence of compound.
The test system of assay [14] is Streptococcus pyogenes. The assay is described as follows: Bacteriostatic activity against Streptococcus pyogenes 01-968 expressing inducible ermA after 20 to 24 hrs by two-fold microbroth dilution method.
For assay [15], the system named is Streptococcus pneumoniae. The assay is described as follows: Bactericidal activity against penicillin-susceptible Streptococcus pneumoniae PU09 incubated for 20 to 24 hrs followed by sub-culturing for 24 hrs in absence of compound.
Assay [16] has as its system Haemophilus influenzae. Description: Bactericidal activity against azithromycin susceptible/ampicillin-resistant Haemophilus influenzae 11P307 incubated for 20 to 24 hrs followed by sub-culturing for 24 hrs in absence of compound.
The test system of assay [17] is Streptococcus pneumoniae. Description: Ratio of MBC to MIC for penicillin-susceptible Streptococcus pneumoniae PU09.
The subject of assay [18] is Staphylococcus aureus. The assay is described as follows: Bacteriostatic activity against methicillin-resistant Staphylococcus aureus PU20 expressing constitutive ermC after 20 hrs by two-fold microbroth dilution method. To be noted: PU20, 20 h.
Assay [19] has as its system Streptococcus pyogenes. Description: Bactericidal activity against Streptococcus pyogenes 12-207 expressing mef incubated for 20 to 24 hrs followed by sub-culturing for 24 hrs in absence of compound.
Assay [20] deals with Streptococcus pneumoniae. Description: Bacteriostatic activity against […] Streptococcus pneumoniae ATCC 49619 after 20 to 24 hrs by two-fold microbroth dilution method.
Assay [21] concerns Streptococcus pneumoniae. The assay is described as follows: Bacteriostatic activity against penicillin-susceptible Streptococcus pneumoniae PU09 after 20 to 24 hrs by two-fold microbroth dilution method.
Assay [22] relates to Staphylococcus aureus. Description: Bactericidal activity against methicillin-resistant Staphylococcus aureus PU20 expressing constitutive ermC incubated for 20 hrs followed by sub-culturing for 24 hrs in absence of compound.
In assay [23] the test system is Haemophilus influenzae. The assay is described as follows: Ratio of MBC to MIC for azithromycin susceptible/ampicillin-resistant Haemophilus influenzae 11P307.
Assay [24] has as its system Streptococcus pneumoniae. Description: Bactericidal activity against […] Streptococcus pneumoniae ATCC 49619 incubated for 20 to 24 hrs followed by sub-culturing for 24 hrs in absence of compound.
The test system of assay [25] is Moraxella catarrhalis. Description: Ratio of MBC to MIC against erythromycin-susceptible Moraxella catarrhalis 13L332.
Assay [26] deals with Moraxella catarrhalis. The assay is described as follows: Bactericidal activity against erythromycin-susceptible Moraxella catarrhalis 13L332 incubated for 20 hrs followed by sub-culturing for 24 hrs in absence of compound.
The subject of assay [27] is Moraxella catarrhalis. The assay is described as follows: Bacteriostatic activity against erythromycin-susceptible Moraxella catarrhalis 13L332 after 20 hrs by two-fold microbroth dilution method. To be noted: 13L332, 20 h.

Converted amounts (≈) assume the structure as drawn.

The values below come from ChEMBL document CHEMBL4004878, “Design, synthesis and structure-bactericidal activity relationships of novel 9-oxime ketolides and reductive epimers of acylides” (2017).

`CC[C@H]1OC(=O)[C@@](C)(F)C(=O)[C@H](C)[C@@H](O[C@@H]2O[C@H](C)C[C@H](N(C)C)[C@H]2O)[C@](C)(OC)C[C@@H](C)/C(=N\OC/C=C/c2cnc3ccccc3c2)[C@H](C)[C@H]2OC(=O)O[C@@]21C`: the MIC turned out to be 2 µg/mL (≈ 2.46 µM) against Moraxella catarrhalis [1]; 2 µg/mL (≈ 2.46 µM) with Staphylococcus aureus [2]; 0.062 µg/mL (≈ 0.0762 µM) in the assay on Streptococcus pyogenes [8]; 8 µg/mL (≈ 9.83 µM) against Haemophilus influenzae [10]; 0.25 µg/mL (≈ 0.307 µM) against Streptococcus pyogenes [14]; 64 µg/mL (≈ 78.6 µM) with Staphylococcus aureus [18]. The MIC against Streptococcus pneumoniae [20] is at most 0.008 µg/mL; in the assay with Streptococcus pneumoniae [21] it was 0.5 µg/mL (≈ 0.614 µM). The Ratio in the assay on Staphylococcus aureus [3] is reported as above 8; in the assay on Streptococcus pneumoniae [4], “>=8”; in the assay with Streptococcus pyogenes [6], 8; with Staphylococcus aureus [7] it was 4; in the assay on Streptococcus pyogenes [9], above 8; in the assay on Moraxella catarrhalis [11], 1. For the same compound, the figures for the Ratio in the assay on Streptococcus pneumoniae [17] and with Haemophilus influenzae [23] were 2 and above 8, respectively. The MBC is above 16 µg/mL with Staphylococcus aureus [5]; 2 µg/mL (≈ 2.46 µM) in the assay on Moraxella catarrhalis [12]; 2 µg/mL (≈ 2.46 µM) in the assay with Streptococcus pyogenes [13]; 1 µg/mL (≈ 1.23 µM) with Streptococcus pneumoniae [15]; above 64 µg/mL in the assay on Haemophilus influenzae [16]; above 0.5 µg/mL against Streptococcus pyogenes [19]. Besides, the figures for the MBC against Staphylococcus aureus [22] and with Streptococcus pneumoniae [24] were 256 µg/mL (≈ 315 µM) and 0.062 µg/mL (≈ 0.0762 µM), respectively.

On to `CC[C@H]1OC(=O)[C@H](C)[C@H](OC(=O)Cc2ccccn2)[C@H](C)[C@@H](O[C@@H]2O[C@H](C)C[C@H](N(C)C)[C@H]2O)[C@@](C)(OC/C=C/c2cnc3ccccc3c2)C[C@@H](C)/C(=N\O)[C@H](C)[C@H]2OC(=O)O[C@@]21C`, for which the MIC with Staphylococcus aureus [2] came to 64 µg/mL (≈ 70.9 µM); in the assay with Streptococcus pyogenes [14], 8 µg/mL (≈ 8.86 µM); against Moraxella catarrhalis [27], 0.5 µg/mL (≈ 0.554 µM); in the assay with Staphylococcus aureus [18] it was 256 µg/mL (≈ 283 µM); with Streptococcus pneumoniae [20], 4 µg/mL (≈ 4.43 µM); in the assay on Streptococcus pneumoniae [21], 8 µg/mL (≈ 8.86 µM). The Ratio in the assay with Moraxella catarrhalis [25] is above 8; with Staphylococcus aureus [3], above 4; in the assay on Streptococcus pneumoniae [4] it was 4; with Streptococcus pyogenes [6], 8; with Streptococcus pneumoniae [17], 2. The MBC against Staphylococcus aureus [5] was above 256 µg/mL; in the assay with Moraxella catarrhalis [26] it was above 4 µg/mL; in the assay with Streptococcus pyogenes [13], 64 µg/mL (≈ 70.9 µM); in the assay on Streptococcus pneumoniae [15], 16 µg/mL (≈ 17.7 µM); in the assay on Staphylococcus aureus [22], above 256 µg/mL; in the assay with Streptococcus pneumoniae [24], 16 µg/mL (≈ 17.7 µM).

Turning to `CC[C@H]1OC(=O)[C@H](C)[C@@H](OC(=O)Cc2ccccn2)[C@H](C)[C@@H](O[C@@H]2O[C@H](C)C[C@H](N(C)C)[C@H]2O)[C@](C)(OC)C[C@@H](C)/C(=N\OC)[C@H](C)[C@H]2OC(=O)O[C@@]21C`, the MIC with Staphylococcus aureus [2] is 4 µg/mL (≈ 5.24 µM); with Streptococcus pyogenes [14] it was 0.25 µg/mL (≈ 0.327 µM); in the assay with Moraxella catarrhalis [27] it was 0.25 µg/mL (≈ 0.327 µM); against Staphylococcus aureus [18], above 256 µg/mL; against Streptococcus pneumoniae [20] it was 0.125 µg/mL (≈ 0.164 µM); in the assay with Streptococcus pneumoniae [21], 0.5 µg/mL (≈ 0.655 µM). The Ratio is above 8 in the assay with Moraxella catarrhalis [25], above 8 in the assay with Staphylococcus aureus [3], 8 in the assay on Streptococcus pyogenes [6] and 2 in the assay with Streptococcus pneumoniae [17]. The MBC in the assay with Staphylococcus aureus [5] is above 32 µg/mL; in the assay with Moraxella catarrhalis [26], above 2 µg/mL; against Streptococcus pyogenes [13], 2 µg/mL (≈ 2.62 µM); in the assay with Streptococcus pneumoniae [15], 1 µg/mL (≈ 1.31 µM); in the assay on Staphylococcus aureus [22] it was above 256 µg/mL; in the assay with Streptococcus pneumoniae [24] it was 0.25 µg/mL (≈ 0.327 µM).

`C=CCN(C)[C@H]1C[C@@H](C)O[C@@H](O[C@@H]2[C@@H](C)C(=O)[C@@H](C)C(=O)O[C@H](CC)[C@@]3(C)OC(=O)O[C@@H]3[C@@H](C)/C(=N/OC/C=C/c3cnc4ccccc4c3)[C@H](C)C[C@@]2(C)OC)[C@@H]1O`: the MIC was 8 µg/mL (≈ 9.73 µM) with Moraxella catarrhalis [1]; 2 µg/mL (≈ 2.43 µM) in the assay with Staphylococcus aureus [2]; 0.25 µg/mL (≈ 0.304 µM) in the assay on Streptococcus pyogenes [8]; 32 µg/mL (≈ 38.9 µM) against Haemophilus influenzae [10]; 0.5 µg/mL (≈ 0.608 µM) against Streptococcus pyogenes [14]; above 256 µg/mL with Staphylococcus aureus [18]. For the same compound, the results for the MIC in the assay on Streptococcus pneumoniae [20] and against Streptococcus pneumoniae [21] were 0.062 µg/mL (≈ 0.0754 µM) and 0.5 µg/mL (≈ 0.608 µM), respectively. Besides, the Ratio in the assay on Staphylococcus aureus [3] is given as above 8; in the assay on Streptococcus pneumoniae [4], 4; in the assay with Streptococcus pyogenes [6], 8; in the assay on Streptococcus pyogenes [9], 4; with Moraxella catarrhalis [11], 2; in the assay on Streptococcus pneumoniae [17], 1. The Ratio in the assay with Haemophilus influenzae [23] is above 8. Moreover, the MBC against Staphylococcus aureus [5] was above 16 µg/mL; with Moraxella catarrhalis [12], 16 µg/mL (≈ 19.5 µM); in the assay on Streptococcus pyogenes [13], 4 µg/mL (≈ 4.87 µM); in the assay on Streptococcus pneumoniae [15] it was 0.5 µg/mL (≈ 0.608 µM); in the assay on Haemophilus influenzae [16] it was above 256 µg/mL; with Streptococcus pyogenes [19], 1 µg/mL (≈ 1.22 µM). Also, the MBC in the assay on Streptococcus pneumoniae [24] was found to be 0.25 µg/mL (≈ 0.304 µM).

As to `CC[C@H]1OC(=O)[C@H](C)[C@H](OC(=O)Cc2ccccn2)[C@H](C)[C@@H](O[C@@H]2O[C@H](C)C[C@H](N(C)C)[C@H]2O)[C@](C)(OC)C[C@@H](C)/C(=N\OC)[C@H](C)[C@H]2OC(=O)O[C@@]21C`, the MIC against Staphylococcus aureus [2] was above 256 µg/mL; against Streptococcus pyogenes [14] it was above 64 µg/mL; in the assay with Moraxella catarrhalis [27], 32 µg/mL (≈ 41.9 µM); with Staphylococcus aureus [18] it was above 256 µg/mL; against Streptococcus pneumoniae [20], above 64 µg/mL; against Streptococcus pneumoniae [21], 32 µg/mL (≈ 41.9 µM). The MBC is above 256 µg/mL in the assay with Staphylococcus aureus [5]; above 64 µg/mL in the assay with Moraxella catarrhalis [26]; above 64 µg/mL against Streptococcus pyogenes [13]; above 64 µg/mL in the assay on Streptococcus pneumoniae [15]; above 256 µg/mL in the assay with Staphylococcus aureus [22]; above 64 µg/mL with Streptococcus pneumoniae [24].
